Patent US20180291070A1, “PEPTIDES, AND USES THEREOF” (priority 2015, published 2018)
“And” between values parts separate entries of the source, which are not always exact repeats. Equal values may be shown once.

Assays:
[1] = test system: Human Dermal Fibroblasts (HDF); assay: BrdU Cell Proliferation Assay; type: cell-based; conditions: 5, 0.5 or 0.05 μg/ml synthetic peptide 24 h
Experimental: BrDu is incorporated into newly synthesised DNA strands of actively proliferating cells. Following partial denaturation of double stranded DNA, Brdu is detected immunochemically allowing the assessment of the population of cells which are synthesizing DNA. Human Dermal Fibroblasts (HDF—Sigma 10605a) were seeded in a 96 well plate at 10,000 cells per well in DMEM containing 10% fetal calf serum (FCS), 1% Pen/strep, 1% L-glutamine and allowed to adhere for 24 h. Following the initial 24 h incubation the cells were incubated with 5 μg/ml, 0.5 μg/ml or 0.05 μg/ml synthetic peptide for 24 h respectively. After 18 h incubation with synthetic peptides 20 μl BrDu reagent was added to each well. At 24 h incubation the cell were fixed and the amount of […] was measured using the BrdU Cell Proliferation Assay, all steps were carried out according to the manufacturer's instructions. Results were calculated as a percentage of the untreated control. An increase in optical density reading indicates greatER incorporation of BrDu and increase cell proliferation.

TNF-α = TNF-α secretion by LPS-stimulated THP-1 differentiated macrophages (Biolegend ELISA); type: cell-based, human; conditions: for TNF-α DECREASE: THP-1 cells, 100, 10 or 1 ng/ml synthetic peptide 24 h, then 10 ng/ml LPS 5 h, vs untreated control
Experimental: TNF-α is secreted by macrophages in response to stimulation by endotoxins such as lipopolysaccharides (LPS). TNF-α is thought to be involved in systemic inflammation and dysregulation of TNF-α production is thought to be involved in many diseases. The Biolegend assay is a sandwich ELISA kit that is designed for the accurate quantitation of human TNF-α from cell culture supernatant, serum or plasma.
THP-1 monocytes were seeded in a 96 well plate at 10,000 cells per well in RPMI containing 10% fetal calf serum (FCS), 1% Pen/strep, 1% L-glutamine, 100 nM PMA and allowed to differentiated for 72 h prior to experimentation.
Following differentiation the cells were incubated with 100 ng/ml, 10 ng/ml or 1 ng/ml synthetic peptide for 24 h respectively.
Following treatment the cells were stimulated with 10 ng/ml LPS for 5 h and the quantity of TNF-α in the supernatant determined using the Biolegend assay ELISA kit.
Results were calculated as a percentage of the untreated control. An increase in optical density reading indicates greater quantity of TNF-α release into cell culture supernatant.
All experiments were prepared in duplicate on three plates (6 wells/conditions). Significance was calculated using Students t-test (*p<0.05 compared to control, **p<0.01 compared to control, *** p<0.001 compared to control).

Substance	INCREASE IN PROLIFERATION [1]	also measured
500 (DFLLAGNK) [compound 500]	6%	–
QSFLLSGNQ [E_1_788]	–	TNF-α secretion reduced vs. untreated cells (TNF-α; THP-1 differentiated macrophages treated 24 hrs. prior to LPS stimulation): 80%
114 (SIEQHSGQNIFSGFNNELLSEALGVNALVAK) [compound 114]	119%	–
97 (GEIVRVER) [compound 97]	26%	–
337 (NKNQYLRGFSKNILE) [compound 337]	8%	–
505 (FLLAGNKRNPQAYR) [compound 505]	118%	–
502 (GAFTPLQYK) [compound 502]	68%	–
320 (KRHGEWRPSYEKEEDEE) [compound 320]	–	TNF-α DECREASE (TNF-α): 13%
474 (FYNEGDAPVVAL) [compound 474]	121%	–
480 (ASLQEQEQGQVQ) [compound 480]	102%	–
247 (LVDLVIPVNGPGKFEAFDLAK) [compound 247]	28%	–
252 (VIPVNGPGKF) [compound 252]	111%	–
144 (AGILEADR) [compound 144]	–	TNF-α DECREASE (TNF-α): 16%
461 (YGEGSSEEGYYGEQQQQPGMTR) [compound 461]	85%	–
158 (NNQRNFLAGDEDNVISQIQRPVKE) [compound 158]	21%	–
76 (VTNLNSQNFPILNLVQMSAVK) [compound 76]	–	TNF-α DECREASE (TNF-α): 9%
330 (NKNQYLRGFS) [compound 330]	18%	–
98 (RGLSLLQPYASLQ) [compound 98]	49%	–
478 (EVEERSQNIF) [compound 478]	76%	–
344 (ARLSPGDVVIIPAGHPVAIT) [compound 344]	–	TNF-α DECREASE (TNF-α): 20%
496 (GAFTPLQYKSYQD) [compound 496]	51% and 81%	–
341 (RGDTIKLPAGTTSYLVNQDDEE) [compound 341]	83%	TNF-α DECREASE (TNF-α): 21%
83 (SYQDVYNVAESS) [compound 83]	32%	–
